From BindingDB's records for PubMed 1994002 (National Institute of Neurological Disorders and Stroke, 1991)
“And” between values parts separate entries of the source, which are not always exact repeats. Identical values can stand only once.

Each compound was assayed against T1, Muscarinic acetylcholine receptor M5 (Homo sapiens, UniProt P08912).
T1 sequence (P08912 whole entry): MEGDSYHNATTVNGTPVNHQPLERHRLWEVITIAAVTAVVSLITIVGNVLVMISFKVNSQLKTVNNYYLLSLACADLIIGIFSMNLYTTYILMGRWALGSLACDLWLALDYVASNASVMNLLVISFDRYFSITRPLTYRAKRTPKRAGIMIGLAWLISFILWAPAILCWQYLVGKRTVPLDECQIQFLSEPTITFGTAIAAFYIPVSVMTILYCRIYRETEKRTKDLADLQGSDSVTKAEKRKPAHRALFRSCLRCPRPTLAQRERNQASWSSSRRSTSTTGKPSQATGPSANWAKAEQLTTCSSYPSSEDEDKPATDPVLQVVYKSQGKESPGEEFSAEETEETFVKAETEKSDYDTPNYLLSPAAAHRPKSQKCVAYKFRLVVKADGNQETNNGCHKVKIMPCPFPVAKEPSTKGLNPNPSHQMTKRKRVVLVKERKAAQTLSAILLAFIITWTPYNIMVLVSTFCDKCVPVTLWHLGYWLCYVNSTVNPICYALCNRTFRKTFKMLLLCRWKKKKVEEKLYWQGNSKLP

Row | SMILES | Ki
1 | COc1ccccc1CNCCCCCCNCCCCCCCCNCCCCCCNCc1ccccc1OC [METHOCTRAMINE] | 135 nM
2 | C[N+]1(C)CCC(OC(=O)C(c2ccccc2)c2ccccc2)CC1 | 1.05 nM
3 | O[Si](CCCN1CCCCC1)(c1ccc(F)cc1)C1CCCCC1 (stereo not drawn) [CAS_5311091] | 93.3 nM
4 | CCN(CC)CC1CCCCN1CC(=O)N1c2ccccc2NC(=O)c2ccccc21 (single isomer, unassigned; (+)) [CAS_121029-35-4] | 3020 nM
5 | CCCN(CCC)CC1CCCCN1CCNC(=O)N1c2ccccc2C(=O)Nc2cccnc21 (stereo not drawn) | 537 nM
6 | CCN(CC)CCCCC1CCN(CC(=O)N2c3ccccc3C(=O)Nc3cccnc32)CC1 [NSC_129989] | 832 nM
7 | C[C@H]1OC(=O)C2C[C@H]3CCCC[C@@H]3[C@@H](/C=C/[C@@H]3CCC[C@H](C)N3C)C21 (stereo partly drawn) [HIMBACINE] | 490 nM

Each compound was assayed against T2, Muscarinic acetylcholine receptor M4 (Homo sapiens, UniProt P08173).
T2 sequence (P08173 whole entry): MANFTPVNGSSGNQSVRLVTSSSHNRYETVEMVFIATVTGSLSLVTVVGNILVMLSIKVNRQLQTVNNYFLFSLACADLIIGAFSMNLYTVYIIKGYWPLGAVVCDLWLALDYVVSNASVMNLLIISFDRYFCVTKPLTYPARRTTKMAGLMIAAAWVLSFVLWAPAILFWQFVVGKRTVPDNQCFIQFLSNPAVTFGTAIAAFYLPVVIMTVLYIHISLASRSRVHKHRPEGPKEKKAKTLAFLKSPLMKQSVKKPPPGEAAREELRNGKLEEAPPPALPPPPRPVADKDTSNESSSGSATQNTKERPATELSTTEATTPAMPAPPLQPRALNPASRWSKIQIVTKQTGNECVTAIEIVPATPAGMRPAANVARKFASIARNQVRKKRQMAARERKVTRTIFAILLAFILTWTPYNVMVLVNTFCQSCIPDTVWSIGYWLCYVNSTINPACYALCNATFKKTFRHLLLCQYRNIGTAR

Row | SMILES | Ki
8 | O[Si](CCCN1CCCCC1)(c1ccc(F)cc1)C1CCCCC1 (stereo not drawn) [CAS_5311091] | 31.6 nM
9 | CCCN(CCC)CC1CCCCN1CCNC(=O)N1c2ccccc2C(=O)Nc2cccnc21 (stereo not drawn) | 10 nM

Now from value to compound:

Row | Ki | SMILES
10 | 31.6 nM | COc1ccccc1CNCCCCCCNCCCCCCCCNCCCCCCNCc1ccccc1OC [METHOCTRAMINE]
11 | 162 nM | CCN(CC)CC1CCCCN1CC(=O)N1c2ccccc2NC(=O)c2ccccc21 (single isomer, unassigned; (+)) [CAS_121029-35-4]
12 | 3.02 nM and 19.5 nM | OC(C#CCN1CCCCC1)(c1ccccc1)C1CCCCC1 (stereo not drawn) [NSC_2054314]
13 | 6.46 nM | CCN(CC)CCCCC1CCN(CC(=O)N2c3ccccc3C(=O)Nc3cccnc32)CC1 [NSC_129989]

What follows are compounds tested against T3, Muscarinic acetylcholine receptor M2 (Homo sapiens, UniProt P08172).
T3 sequence (P08172 whole entry): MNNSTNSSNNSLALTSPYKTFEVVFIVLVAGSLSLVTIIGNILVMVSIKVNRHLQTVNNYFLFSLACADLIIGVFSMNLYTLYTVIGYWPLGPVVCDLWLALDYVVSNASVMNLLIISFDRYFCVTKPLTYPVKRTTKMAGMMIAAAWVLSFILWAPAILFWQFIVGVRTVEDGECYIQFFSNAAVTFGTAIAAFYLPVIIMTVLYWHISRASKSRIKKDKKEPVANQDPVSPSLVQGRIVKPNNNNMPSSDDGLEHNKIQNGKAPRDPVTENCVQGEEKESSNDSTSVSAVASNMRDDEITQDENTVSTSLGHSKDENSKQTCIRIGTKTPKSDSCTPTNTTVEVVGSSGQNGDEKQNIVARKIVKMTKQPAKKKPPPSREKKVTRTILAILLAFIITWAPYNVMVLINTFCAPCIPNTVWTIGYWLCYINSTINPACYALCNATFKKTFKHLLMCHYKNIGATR

Row | SMILES | Ki
14 | O[Si](CCCN1CCCCC1)(c1ccc(F)cc1)C1CCCCC1 (stereo not drawn) [CAS_5311091] | 132 nM
15 | CCN(CC)CC1CCCCN1CC(=O)N1c2ccccc2NC(=O)c2ccccc21 (single isomer, unassigned; (+)) [CAS_121029-35-4] | 55 nM
16 | CCCN(CCC)CC1CCCCN1CCNC(=O)N1c2ccccc2C(=O)Nc2cccnc21 (stereo not drawn) | 6.03 nM
17 | OC(C#CCN1CCCCC1)(c1ccccc1)C1CCCCC1 (stereo not drawn) [NSC_2054314] | 20.9 nM and 72.4 nM
18 | C[C@H]1OC(=O)C2C[C@H]3CCCC[C@@H]3[C@@H](/C=C/[C@@H]3CCC[C@H](C)N3C)C21 (stereo partly drawn) [HIMBACINE] | 10 nM
